Results on 1 compound are retold here after publication PMC12480552 (Scientific Reports, 2025).

The conditions of data set [1]: oral dosing in NHPs; ref data not reported; cited from earlier work.
Data set [2] is described as follows: MALDI MSI of brain sections, biodistribution in healthy nonhuman primates. The note with it: for concentration at 4 h: male, rhesus monkey, oral, 6 mg/kg. How it is done: Animals were randomized using the GSK Randomization App 2.0, which is an internal software tool that uses the ‘sample’ function in R to randomly shuffle animal IDs, then assigns them to treatment groups to ensure unbiased allocation.
Before each dose, animals were lightly sedated with an intramuscular injection of ketamine (5–10 mg/kg), and a blood sample was drawn. […] NHPs were euthanized by administering an overdose of injected sodium pentobarbital IV (150–200 mg/kg) and confirmed by thoracotomy and exsanguination. Terminal plasma, cerebrospinal fluid, and brain tissue were collected at necropsy. […] The brain was cut into six roughly 1-cm thick coronal segments before snap-freezing by floating on liquid nitrogen. The right hemispheres of the four interior coronal brain segments were cryosectioned and analyzed by matrix-assisted laser desorption/ionization mass spectrometry imaging (MALDI MSI) to quantitatively assess the tissue distribution of the dosed compounds[40]–[43]. After MALDI MSI analysis, tissue sections were stained with hematoxylin and eosin (H&E) for correlation of ion images with underlying tissue histology.
For both the nonhuman primate (NHP) and mouse metastases model studies, brain tissue sections of 6-µm thickness were prepared on a Leica CM1950 cryostat (Leica Biosystems, Danvers, MA). For the NHP study, tissue sections were collected from four of the coronal brain segments from each animal. From each coronal segment, three tissue sections were collected for MALDI MSI, one section for hematoxylin and eosin (H&E) staining, and roughly 30 sections were collected into a pre-weighed vial for homogenization and liquid chromatography–tandem mass spectrometry (LC-MS/MS) bioanalysis. The three sections for MALDI MSI were thaw-mounted onto double-width indium tin oxide–coated slides (BigSlides; Bruker Daltonics, Billerica, MA) that had been pretreated with a poly-L-lysine solution to improve tissue adherence. The section for H&E staining was thaw-mounted onto a standard double-width glass microscope slide.
A gelatin cast of the mimetic model was prepared by pipetting a warmed (50 °C) 15% gelatin solution into a tissue microarray mold (Arraymold kit C, 4 mm, 15 cores; Arraymold, Ogden, UT). The gelatin cast was then frozen overnight at (− 20 °C). Bulk homogenate of control rat brain tissue was prepared using an Omni Bead Ruptor Elite bead mill homogenizer (Omni International, Kennesaw, GA). […] The gelatin cast was warmed to room temperature, and the spiked homogenates were pipetted into each of the individual wells. The cast and homogenate were then frozen by floating on liquid nitrogen and stored at − 80 °C. Cryosections (6-µm thickness) of the mimetic tissue model were then collected on the same slide as the sample tissue to be quantified.
Slides were coated with a TM Sprayer (HTX Technologies, Chapel Hill, NC) using the following parameters: 0.1-mL/min flowrate, 70 °C, 3-mm track spacing with CC pattern, and 8 passes.
MALDI MSI was performed on either a Bruker ScimaX (7T) or a Bruker SolariX (7T) FT-ICR mass spectrometer. […] Both narrowband and CASI windows were centered between parent and internal standard m/z. The small laser focus was used with 200 laser shots per position, and the laser power was adjusted in accordance with a quality control sample acquired just before initiating the imaging sequence.
After MALDI MSI acquisition, slides were immersed in 100% ethanol for 5 min to remove the MALDI matrix. Slides were then stained with H&E and digitally scanned. Ion images were loaded into flexImaging (Bruker Daltonics), the post–MALDI H&E image was coregistered, and key regions of interest (ROIs) for the tissue and mimetic model were drawn. […] This stipulation was implemented to avoid internal standard normalization of noise, which can introduce artifactual distributions.

Values joined by “and” are separate entries in the source; they are usually repeats but may differ in a detail not shown here. Identical values can stand only once.

Regarding `NC(=O)c1cccc2cn(-c3ccc([C@@H]4CCCNC4)cc3)nc12` [Niraparib], the “plasma time to peak drug concentration (Tmax)” value in data set [1] is listed as “≈ 4 h”. In addition, in data set [2] (healthy rhesus macaques, individual animals, oral once daily 5 days, niraparib 6 mg/kg (4 h after last dose), olaparib 10 mg/kg (2–2.5 h), total concentration, LOD 20 ng/g niraparib, 70 ng/g olaparib), the “MALDI MSI Brain sections, mean (SD)” value is 283 (69) ng/g and 684 (189) ng/g. Moreover, the concentration at 4 h stood at 268 ng/g in data set [2] (brain (coronal Region 1 sections), MALDI MSI Mean Conc. by brain region, NHP-1, Region 1, 3 sections, Fig. 1B); 524 ng/g in data set [2] (brain (coronal Region 1 sections), MALDI MSI Mean Conc. by brain region, NHP-2, Region 1, 3 sections, Fig. 1B); 287 ng/g in data set [2] (brain (coronal Region 2 sections), MALDI MSI Mean Conc. by brain region, NHP-1, Region 2, 3 sections, Fig. 1B); 610 ng/g in data set [2] (brain (coronal Region 2 sections), MALDI MSI Mean Conc. by brain region, NHP-2, Region 2, 3 sections, Fig. 1B); 217 ng/g in data set [2] (brain (coronal Region 3 sections), MALDI MSI Mean Conc. by brain region, NHP-1, Region 3, 3 sections, Fig. 1B); 822 ng/g in data set [2] (brain (coronal Region 3 sections), MALDI MSI Mean Conc. by brain region, NHP-2, Region 3, 3 sections, Fig. 1B). Further, the concentration at 4 h turned out to be 362 ng/g in data set [2] (brain (coronal Region 4 sections), MALDI MSI Mean Conc. by brain region, NHP-1, Region 4, 3 sections, Fig. 1B); 781 ng/g in data set [2] (brain (coronal Region 4 sections), MALDI MSI Mean Conc. by brain region, NHP-2, Region 4, 3 sections, Fig. 1B); 779 ng/g in data set [2] (brain blood vessel, Niraparib Mean Conc. in histological ROI, NHP-1, Blood Vessel, Fig. 1D); 1210 ng/g in data set [2] (brain blood vessel, Niraparib Mean Conc. in histological ROI, NHP-2, Blood Vessel, Fig. 1D); 292 ng/g in data set [2] (brain gray matter, Niraparib Mean Conc. in histological ROI, NHP-1, Gray Matter, Fig. 1D); 743 ng/g in data set [2] (brain gray matter, Niraparib Mean Conc. in histological ROI, NHP-2, Gray Matter, Fig. 1D). Further, the concentration at 4 h in data set [2] (brain parenchyma, mean unbound niraparib concentration in the brain parenchyma, healthy rhesus macaques, estimated from MALDI MSI) was roughly 15 ng/g; in data set [2] (brain ventricle, Niraparib Mean Conc. in histological ROI, NHP-1, Ventricle, Fig. 1D) it was 3360 ng/g; in data set [2] (brain ventricle, Niraparib Mean Conc. in histological ROI, NHP-2, Ventricle, Fig. 1D) it was 4830 ng/g; in data set [2] (brain white matter, Niraparib Mean Conc. in histological ROI, NHP-1, White Matter, Fig. 1D), 177 ng/g; in data set [2] (brain white matter, Niraparib Mean Conc. in histological ROI, NHP-2, White Matter, Fig. 1D), 350 ng/g.
